Assay results published in patent US9156840B2, “D2 antagonists, methods of synthesis and methods of use” (ALTOS THERAPEUTICS, LLC, priority 2010, dated 2015).
pIC50: −log10 of the molar value. Structures can show the parent of a compound that is named as a salt.

Each compound was assayed against T1, human D2 receptor (Homo sapiens, UniProt P14416) (assay: D2 receptor radioligand binding assay (membranes of HEK-293 cells expressing human D2 receptor)). Details: radioligand displacement, HEK293 membranes, 37° C. for 120 minutes; read-out: Affinity Score (IC50 values for D2 on a scale of 1 through 5).
T1 construct: expressed in transfected cells; cDNA from Origene clones TC308892 and SC123573
T1 sequence (P14416 whole entry): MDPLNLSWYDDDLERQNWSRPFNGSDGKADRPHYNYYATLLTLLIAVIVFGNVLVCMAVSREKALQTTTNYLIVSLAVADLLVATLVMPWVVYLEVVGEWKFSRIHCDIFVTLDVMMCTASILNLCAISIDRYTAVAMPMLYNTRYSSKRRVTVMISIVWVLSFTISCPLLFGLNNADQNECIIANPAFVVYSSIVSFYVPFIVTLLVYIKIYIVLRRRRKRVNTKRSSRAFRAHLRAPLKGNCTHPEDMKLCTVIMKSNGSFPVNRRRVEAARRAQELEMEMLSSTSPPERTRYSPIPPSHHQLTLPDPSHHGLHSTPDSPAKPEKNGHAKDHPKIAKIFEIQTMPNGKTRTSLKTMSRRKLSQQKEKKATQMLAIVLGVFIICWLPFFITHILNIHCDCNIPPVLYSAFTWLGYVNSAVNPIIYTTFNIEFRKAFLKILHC
Experimental: Affinity for the dopamine D2 receptor was tested in vitro, and the following describes the construction of cell lines expressing human D2 receptor, as well as the binding assays themselves.
Establishment of Stable Cell Lines Expressing Either the Cloned Human D2S Receptor or the Cloned Human D2L Receptor.
The human D2 receptor exists in two isoforms: the short form (D2S) and the long form (D2L). The two isoforms are generated from the D2 gene by alternative splicing and the D2L isoform differs from the D2S isoform by the addition of 29 amino acids in the third intracellular loop of its protein structure.
To establish HEK-293 cell lines stably expressing either the human D2S or the human D2L, the human dopamine D2S receptor (Genebank Accession Number NM_016574) and human dopamine D2L receptor (Genebank Accession Number BC021195) were amplified by PCR from Origene cDNA clones TC308892 and SC123573 (respectively) using the following primers: 5-[…]-3 (SEQ ID NO: 1) sense and 5-[…]-3 (SEQ ID NO: 2) antisense. The resulting PCR products were respectively cloned into pENTR-D-TOPO (Invitrogen), sequenced and then transferred into the pCDNA3.2-DEST (Invitrogen) using the LR-clonasc gateway reaction (Invitrogen) and sequenced again to verify the genes sequence.
HEK293 cells were maintained in Eagles Minimum Essential Medium (MEM) supplemented with 0.292 g/L L-glutamine and 10% (v/v) fetal calf serum at 37° C. in a 5% CO2 humidified atmosphere. Cells were grown to 60-80% confluency in 10 cm dishes before transfection. Transfection of the D2S and D2L containing pcDNA3.2-DEST into HEK-293 cells were performed using Lipofectamine 2000 (Invitrogen). Transfected cells were seeded and diluted 2 days after transfection and maintained in culture medium supplemented with 500 μg/mL G418. The HEK-293 cell line expressing the huD2S (R2D2S) and the huD2L (R2D2L) were maintained in culture medium supplemented with 500 μg/mL G418.
D2 Receptor Binding Assays
HEK293 cells were in Eagles Minimum Essential Medium (MEM) supplemented with 10% FBS, 0.292 g/liter L-glutamine, 10^5 units/liter penicillin, 100 mg/liter streptomycin and […] Geneticin at 37° C. in a 5% CO2 humidified atmosphere. Cells were grown to 80-90% confluence and harvested with cell stripper (Cellgro #25-056-CI). Cells were then washed with PBS (2×). Cells were either pelleted and frozen at −80° C. or membranes were prepared immediately.
Cells from pellet were resuspended in homogenization buffer (15 mM Tris*HCl, 2 mM MgCl2*6H2O, 0.3 mM EDTA, 1 mM EGTA pH 7.4 @ 4° C.). Cells were then homogenized using a Polytron (PT 1200) homogenizer at setting 6 for 10 seconds. Crude membranes were pelleted at 39, 412 g for 15 min, at 4° C. (2×) in a Sorval RC6 plus centrifuge. Membranes were finally resuspended in resuspension buffer (50 mM Tris*HCl, 120 mM NaCl, 10 mM MgCl2*6H2O, 1 mM EDTA pH 7.4 @ 4° C.) and sonicated (Fisher Sonic Dismembrator) at setting 5 for 10 seconds.
The radioligand binding assays were conducted in microtiter plates (Costar #3961) with a final volume of 1.0 mL.
The membranes were thawed at room temperature, briefly homogenized using a sonicator, diluted in assay buffer and kept on wet ice until being added to the assay plate. Membranes were diluted to a final target tissue concentration of 10 μg protein per well. The specific binding should be greater than 80% with less than 10% total radioligand bound to minimize ligand depletion errors.
First compound of the invention (50 μL) or assay buffer (50 mM Tris*HCl, 120 mM NaCl, 5 mM MgCl2*6H2O, 1 mM EDTA, 5 mM KCl pH 7.4 @37° C. plus 0.025% BSA), buffer (700 μL) and then membrane (200 μL) were added to the deep well assay plate, which was then shaken for 10 minutes. Finally, radioligand (50 μL) was added.
The assay plates were incubated at 37° C. for 120 minutes.
The assay plate were filtered over 0.3% PEI pretreated glass fiber filtermats (GF/C) using a Packard Filtermate cell harvester. […]

SMILES | pIC50
O=C(O)CCCCCN1CN(c2ccccc2)C2(CCN(CCCn3c(=O)[nH]c4ccccc43)CC2)C1=O [Compound 22, 6-(4-Oxo-8-(3-(2-oxo-2,3-dihydro-1H-benzo[d]imidazol-1-yl)propyl)-1-phenyl-1,3,8-triazaspiro[4.5]decan-3-yl)hexanoic acid] | > 8.00
O=C(O)c1cccc(CN2CN(c3ccccc3)C3(CCN(CCCn4c(=O)n(C5CC5)c5ccccc54)CC3)C2=O)c1 [Compound 120, 3-((8-(3-(3-Cyclopropyl-2-oxo-2,3-dihydro-1H-benzo[d]imidazol-1-yl)propyl)-4-oxo-1-phenyl-1,3,8-triazaspiro[4.5]decan-3-yl)methyl)benzoic acid] | > 8.00
CC1(C)C(=O)N(CCCN2CCC3(CC2)C(=O)N(Cc2cccc(C(=O)O)c2)CN3c2ccc(F)cc2)c2ccccc21 [Compound 123, 3-((8-(3-(3,3-Dimethyl-2-oxoindolin-1-yl)propyl)-1-(4-fluorophenyl)-4-oxo-1,3,8-triazaspiro[4.5]decan-3-yl)methyl)benzoic acid] | > 8.00
CCN(CC)C(=O)COC(=O)c1cccc(CN2CN(c3ccccc3)C3(CCN(CCCn4c(=O)[nH]c5ccccc54)CC3)C2=O)c1 [Compound 30, 2-(Diethylamino)-2-oxoethyl 3-((4-oxo-8-(3-(2-oxo-2,3-dihydro-1H-benzo[d]imidazol-1-yl)propyl)-1-phenyl-1,3,8-triazaspiro[4.5]decan-3-yl)methyl)benzoate] | > 8.00
O=C(O)CCCC(c1ccccc1)N1CN(c2ccccc2)C2(CCN(CCCn3c(=O)[nH]c4ccccc43)CC2)C1=O (stereo not shown) [Compound 69, 5-(4-Oxo-8-(3-(2-oxo-2,3-dihydro-1H-benzo[d]imidazol-1-yl)propyl)-1-phenyl-1,3,8-triazaspiro[4.5]decan-3-yl)-5-phenylpentanoic acid] | > 8.00
O=C(O)c1ccccc1CN1CN(c2ccc(F)cc2)C2(CCN(CCCN3C(=O)C4(CC4)c4ccccc43)CC2)C1=O [Compound 161, 2-((1-(4-Fluorophenyl)-4-oxo-8-(3-(2′-oxospiro[cyclopropane-1,3′-indoline]-1′-yl)propyl)-1,3,8-triazaspiro[4.5]decan-3-yl)methyl)benzoic acid] | > 8.00
COc1ccc(N2CN(Cc3cccc(C(=O)O)c3)C(=O)C23CCN(CCCn2c(=O)[nH]c4ccccc42)CC3)cc1 [Compound 56, 3-((1-(4-Methoxyphenyl)-4-oxo-8-(3-(2-oxo-2,3-dihydro-1H-benzo[d]imidazol-1-yl)propyl)-1,3,8-triazaspiro[4.5]decan-3-yl)methyl)benzoic acid] | > 8.00
O=C(O)c1ccccc1CN1CN(c2ccc(F)cc2)C2(CCN(CCCN3C(=O)Cc4ccccc43)CC2)C1=O [Compound 152, 2-((1-(4-Fluorophenyl)-4-oxo-8-(3-(2-oxoindolin-1-yl)propyl)-1,3,8-triazaspiro[4.5]decan-3-yl)methyl)benzoic acid] | > 8.00
O=C(O)c1ccc(N2CN(c3ccccc3)C3(CCN(CCCC(=O)c4ccccc4)CC3)C2=O)cc1 [Compound 182, 4-(4-Cho-8-(4-oxo-4-phenylbutyl)-1-phenyl-1,3,8-triazaspiro[4.5]decan-3-yl)benzoic acid, hydrochloride] | > 8.00
CS(=O)(=O)Nc1ccc(N2CN(c3ccccc3)C3(CCN(CCCC(=O)c4ccc(F)cc4)CC3)C2=O)cc1 [Compound 214, N-(4-(8-(4-(4-Fluorophenyl)-4-oxobutyl)-4-oxo-1-phenyl-1,3,8-triazaspiro[4.5]decan-3-yl)phenyl)methanesulfonamide] | > 8.00
CS(=O)(=O)Nc1cccc(N2CN(c3ccccc3)C3(CCN(CCCC(=O)c4ccc(F)cc4)CC3)C2=O)c1 [Compound 211] | > 8.00
CC1C(=O)N(CCCN2CCC3(CC2)C(=O)N(Cc2cccc(C(=O)O)c2)CN3c2ccccc2)c2ccccc21 (stereo not shown) [Compound 146, 3-((8-(3-(3-methyl-2-oxoindolin-1-yl)propyl)-4-oxo-1-phenyl-1,3,8-triazaspiro[4.5]decan-3-yl)methyl)benzoic acid] | > 8.00
O=C(CCCN1CCC2(CC1)C(=O)N([C@@H](C(=O)O)c1ccccc1)CN2c1ccccc1)c1ccccc1 [Compound 167, (R)-2-(4-oxo-8-(4-oxo-4-phenylbutyl)-1-phenyl-1,3,8-triazaspiro[4.5]decan-3-yl)-2-phenylacetic acid] | > 8.00
CC1(F)C(=O)N(CCCN2CCC3(CC2)C(=O)N(Cc2ccccc2C(=O)O)CN3c2ccccc2)c2ccccc21 (stereo not shown) [Compound 162, 2-((8-(3-(3-Fluoro-3-methyl-2-oxoindolin-1-yl)propyl)-4-oxo-1-phenyl-1,3,8-triazaspiro[4.5]decan-3-yl)methyl)benzoic acid] | > 8.00
CC1(C)C(=O)N(CCCN2CCC3(CC2)C(=O)N(c2ccc(NS(C)(=O)=O)cc2)CN3c2ccccc2)c2ccccc21 [Compound 217, N-(4-(8-(3-(3,3-Dimethyl-2-oxoindolin-1-yl)propyl)-4-oxo-1-phenyl-1,3,8-triazaspiro[4.5]decan-3-yl)phenyl)methanesulfonamide] | > 8.00
O=C(O)[C@@H](c1ccccc1)N1CN(c2ccccc2)C2(CCN(CCCN3C(=O)Cc4ccccc43)CC2)C1=O [Compound 166, (R)-2-(4-oxo-8-(3-(2-oxoindolin-1-yl)propyl)-1-phenyl-1,3,8-triazaspiro[4.5]decan-3-yl)-2-phenylacetic acid] | > 8.00
O=C(O)c1cccc(CN2CN(C3CCCCC3)C3(CCN(CCCC(=O)c4ccccc4)CC3)C2=O)c1 [Compound 176, 3-((1-cyclohexyl-4-oxo-8-(4-oxo-4-phenylbutyl)-1,3,8-triazaspiro[4.5]decan-3-yl)methyl)benzoic acid, hydrochloride] | > 8.00
COC(=O)c1cccc(N2CN(c3ccccc3)C3(CCN(CCCC(=O)c4ccccc4)CC3)C2=O)c1 [Compound 179, Methyl 3-(4-oxo-8-(4-oxo-4-phenylbutyl)-1-phenyl-1,3,8-triazaspiro[4.5]decan-3-yl)benzoate] | > 8.00
O=C(O)c1cccc(N2CN(c3ccccc3)C3(CCN(CCCC(=O)c4ccccc4)CC3)C2=O)c1 [Compound 177, 3-(4-Cho-8-(4-oxo-4-phenylbutyl)-1-phenyl-1,3,8-triazaspiro[4.5]decan-3-yl)benzoic acid] | > 8.00
O=C(OCCN1CCOCC1)c1cccc(CN2CN(c3ccccc3)C3(CCN(CCCn4c(=O)[nH]c5ccccc54)CC3)C2=O)c1 [Compound 25, 2-Morpholinoethyl 3-((4-oxo-8-(3-(2-oxo-2,3-dihydro-1H-benzo[d]imidazol-1-yl)propyl)-1-phenyl-1,3,8-triazaspiro[4.5]decan-3-yl)methyl)benzoate] | > 8.00
O=C(CCCN1CCC2(CC1)C(=O)N(Cc1ccccc1C(=O)O)CN2C1CCCCC1)c1ccccc1 [Compound 218, 2-((1-Cyclohexyl-4-oxo-8-(4-oxo-4-phenylbutyl)-1,3,8-triazaspiro[4.5]decan-3-yl)methyl)benzoic acid, hydrochloride] | > 8.00
O=C(O)[C@@H](c1ccccc1)N1CN(c2ccccc2)C2(CCN(CCCn3c(=O)[nH]c4ccccc43)CC2)C1=O [Compound 39, (R)-2-(4-oxo-8-(3-(2-oxo-2,3-dihydro-1H-benzo[d]imidazol-1-yl)propyl)-1-phenyl-1,3,8-triazaspiro[4.5]decan-3-yl)-2-phenylacetic acid] | > 8.00
